From ChEMBL document CHEMBL3826972, “Spirostanol saponins from Tacca vietnamensis and their anti-inflammatory activity” (Bioorg Med Chem Lett, 2016) come the findings set out here.

Data set [1] has as its system RAW264.7. The experiment in a line: Inhibition of LPS-induced NO production in mouse RAW264.7 cells at 80 uM by Griess assay. It counts as functional.
The test system of data set [2] is BV-2. Briefly: Inhibition of LPS-induced NO production in mouse BV2 cells at 80 uM by Griess assay. It counts as functional. For orientation: Griess reagent forms a coloured azo dye with nitrite.
Data set [3] relates to BV-2. Briefly: Inhibition of LPS-induced NO production in mouse BV2 cells by Griess assay. In kind it is functional, cell-based.
Data set [4] has as its system RAW264.7. Briefly: Inhibition of LPS-induced NO production in mouse RAW264.7 cells by Griess assay. In kind it is functional, cell-based.
Data set [5] in a line: Cytotoxicity against mouse BV2 cells assessed as cell viability at 80 uM. It counts as cell-based, BV-2. As to conditions: read-out: Activity.
Data set [6] can be described thus: Cytotoxicity against mouse RAW264.7 cells assessed as cell viability at 80 uM. In kind it is cell-based. As to conditions: read-out: Activity.

Active and inactive are the calls of the source. No cut-off for these calls is given here.

One may read the inhibition as the share of the control response that was lost under treatment. In general, IC50 refers to the concentration at which inhibition is half-maximal. High values mean weaker potency in that assay, low ones greater potency in that assay.

`C[C@@H]1CO[C@]2(C[C@@H]1O)O[C@@H]1C[C@@H]3[C@H]4CC=C5C[C@H](O[C@@H]6O[C@H](CO)[C@@H](O)[C@H](O[C@@H]7O[C@@H](C)[C@H](O[C@@H]8O[C@H](CO)[C@@H](O)[C@H](O)[C@H]8O)[C@@H](O)[C@H]7O)[C@H]6O[C@@H]6O[C@@H](C)[C@H](O)[C@@H](O)[C@H]6O)CC[C@@]5(C)[C@@H]4CC[C@@]3(C)[C@@H]1[C@H]2C` (stereo in doubt): the inhibition at 80 µM in data set [1] and in data set [2] was < 50% throughout. In addition, the IC50 in data set [3] and in data set [4] was > 80 µM throughout.
Regarding `C[C@@H]1CO[C@]2(O[C@H]3C[C@@H]4[C@@H]5CC=C6C[C@@H](O[C@@H]7O[C@H](CO)[C@@H](O)[C@H](O[C@@H]8O[C@@H](C)[C@H](O)[C@@H](O)[C@H]8O)[C@H]7O[C@@H]7O[C@@H](C)[C@H](O)[C@@H](O)[C@H]7O)CC[C@]6(C)[C@H]5CC[C@]4(C)[C@H]3[C@@H]2C)[C@@H](O)[C@@H]1O` (stereo in doubt), the inhibition result in data set [1] and in data set [2] was “Active” each time. The results for the IC50 in data set [3] and in data set [4] were 52.1 µM and 60.7 µM, respectively.
Turning to `C[C@@H]1CO[C@@]2(O[C@@H]3C[C@@H]4[C@H]5CC=C6C[C@H](O[C@@H]7O[C@H](CO)[C@@H](O)[C@H](O[C@@H]8O[C@@H](C)[C@H](O[C@@H]9O[C@H](CO)[C@@H](O)[C@H](O)[C@H]9O)[C@@H](O)[C@H]8O)[C@H]7O[C@@H]7O[C@@H](C)[C@H](O)[C@@H](O)[C@H]7O)CC[C@@]6(C)[C@@H]5CC[C@@]4(C)[C@@H]3[C@H]2C)[C@H](O)C1` (stereo in doubt), the inhibition entry in data set [1] and in data set [2] was “Active” in each case. Further, the IC50 in data set [3] was determined as 43.7 µM; in data set [4], 37 µM.
Consider `C[C@@H]1O[C@@H](O[C@H]2[C@H](O[C@H]3CC[C@@]4(C)C(=CC[C@H]5[C@@H]6C[C@@H]7OC8(OC[C@](C)(O)C[C@@H]8O)[C@@H](C)[C@@H]7[C@@]6(C)CC[C@@H]54)C3)O[C@H](CO)[C@@H](O)[C@@H]2O[C@@H]2O[C@@H](C)[C@H](O)[C@@H](O)[C@H]2O)[C@H](O)[C@H](O)[C@H]1O` (single isomer, unassigned), for which the inhibition at 80 µM in data set [1] and in data set [2] was < 50% throughout. Besides, the IC50 in data set [3] and in data set [4] was > 80 µM throughout.
With `C[C@@H]1COC2(C[C@@H]1O)O[C@H]1C[C@H]3[C@@H]4CC=C5C[C@@H](O[C@@H]6O[C@H](CO)[C@@H](O)[C@H](O[C@@H]7O[C@@H](C)[C@H](O)[C@@H](O)[C@H]7O)[C@H]6O[C@@H]6O[C@@H](C)[C@H](O)[C@@H](O)[C@H]6O)CC[C@]5(C)[C@H]4CC[C@]3(C)[C@H]1[C@@H]2C` (single isomer, unassigned), the inhibition at 80 µM in data set [1] and in data set [2] was < 50% in each case. For the same molecule, the IC50 in data set [3] and in data set [4] was > 80 µM in each case.
As to `C[C@H]1CC[C@@]2(OC1)O[C@@H]1C[C@@H]3[C@H]4CC=C5C[C@H](O[C@H]6O[C@@H](CO)[C@H](O)[C@@H](O[C@H]7O[C@H](C)[C@@H](O[C@@H]8O[C@H](CO)[C@@H](O)[C@H](O)[C@H]8O)[C@H](O)[C@@H]7O)[C@@H]6O[C@H]6O[C@H](C)[C@@H](O)[C@H](O)[C@@H]6O)CC[C@@]5(C)[C@@H]4CC[C@@]3(C)[C@@H]1[C@H]2C`, the viability at 80 µM in data set [5] and in data set [6] was < 50% throughout.
Consider `C[C@@H]1O[C@@H](O[C@H]2[C@H](O[C@@H]3CC[C@]4(C)C(=CC[C@@H]5[C@H]6C[C@H]7O[C@@]8(OC[C@](C)(O)C[C@H]8O)[C@H](C)[C@H]7[C@]6(C)CC[C@H]54)C3)O[C@H](CO)[C@@H](O)[C@@H]2O[C@@H]2O[C@@H](C)[C@H](O[C@@H]3O[C@H](CO)[C@@H](O)[C@H](O)[C@H]3O)[C@@H](O)[C@H]2O)[C@H](O)[C@H](O)[C@H]1O` (stereo in doubt), for which the inhibition at 80 µM in data set [1] and in data set [2] was < 50% throughout. Besides, the IC50 in data set [3] and in data set [4] was > 80 µM each time.
As for `O=C(/C=C/c1ccc(O)c(O)c1)c1ccc(O)cc1O` [BUTEIN], the figures for the IC50 in data set [3] and in data set [4] were 4.3 µM and 5.3 µM, respectively.
`C[C@@H]1CO[C@@]2(O[C@@H]3C[C@@H]4[C@H]5CC=C6C[C@H](O[C@@H]7O[C@H](CO)[C@@H](O)[C@H](O[C@@H]8O[C@@H](C)[C@H](O[C@@H]9O[C@H](CO)[C@@H](O)[C@H](O)[C@H]9O)[C@@H](O)[C@H]8O)[C@H]7O[C@@H]7O[C@@H](C)[C@H](O)[C@@H](O)[C@H]7O)CC[C@@]6(C)[C@@H]5CC[C@@]4(C)[C@@H]3[C@H]2C)[C@H](O)[C@@H]1O` (stereo in doubt): the inhibition entry in data set [1] and in data set [2] was “Active” throughout. For the same molecule, the concentration for half-maximal inhibition (IC50) amounted to 47.3 µM in data set [3] and 58.2 µM in data set [4].
